From patent US7115612B2, “Arylsulfonamides as antiviral agents” (Bayer Aktiengesellschaft, priority 2001, dated 2006)
pEC50: −log10 of the molar value.

Legend:
[1] = Cytotoxicity on 3T3 cells in the anti-MCMV cytopathogenicity test; assay type: cell-based; conditions: mouse, 3T3 mouse cells, 5 days incubation
Description: (§1) The test compounds were employed as 50 millimolar (mM) solutions in dimethyl sulphoxide (DMSO). Ganciclovir, foscarnet and cidofovir served as reference compounds. Following the addition of in each case 2 μl of the 50, 5, 0.5 and 0.05 mM DMSO stock solutions to in each case 98μ of cell culture medium in row 2 A-H, in duplicate determinations, 1:2 dilutions with in each case 50 μl of medium were prepared up to row 11 of the 96-well plate. The wells in rows 1 and 12 each contained 50 μl of medium. 150 μl of a suspension of 1×10^4 cells (human lung fibroblasts [HELF]) (row 1=cell control) or, in rows 2–12, a mixture of HCMV-infected and non-infected HELF cells (M.O.I.=0.001–0.002), i.e. 1–2 infected cells per 1000 non-infected cells, were then pipetted into each of the wells. Row 12 (without substance) served as virus control. The final test concentrations were 250–0.0005 μM. The plates were incubated at 37° C./5% CO2 for 6 days, i.e. until all cells in the virus controls had been infected (100% cytopathogenic effect [CPE]). The wells were then fixed and stained by adding a mixture of Formalin and Giemsa Stain (30 minutes), washed with doubly distilled water and dried in a drying cabinet at 50° C. The plates were then evaluated visually using an overhead microscope (plaque multiplier from Technomara).
CC50 (HELF)=substance concentration in μM at which, compared to the untreated cell control, no visible cytostatic effects on the cells were noticeable;
(§2) Compared to the process described above for HCMV, the anti-MCMV test was carried out with the following changes: a cell-free virus suspension was mixed with a concentrated cell suspension (3T3 mouse cells) and incubated for 15 minutes for adsorption of the viruses, and the suspension was then diluted with medium to 1.3×10^5 cells/ml with a final multiplicity of infection (M.O.I.) of from 0.05–0.1, and in each case 150 μl were dispensed into the wells. The incubation time was 5 days.

[2] = Cytotoxicity on HELF cells in the anti-HCMV cytopathogenicity test; assay type: cell-based; conditions: human lung fibroblasts (HELF cells), 6 days incubation, visual evaluation
Description: as §1, with “[…],” for “2 A-H,”, “2-12,” for “2–12,”, “(M.O.I.=0.001-0.002),” for “(M.O.I.=0.001–0.002),”, “1-2” for “1–2”, “250-0.0005” for “250–0.0005”, “Technomara). From the test plates, the following data were determined: CC50 (HELF)=substance concentration in μM at which, compared to the untreated cell control, no visible cytostatic effects on the cells were noticeable;” for “Technomara).”

MCMV = assay: Anti-MCMV cytopathogenicity test; assay type: cell-based, murine cytomegalovirus; conditions: for pEC50: Murid betaherpesvirus 1, 120 h, MCMV-infected 3T3 mouse cells, M.O.I. 0.05–0.1, 5 days; for SI MCMV: selectivity index, 3T3 CC50 / MCMV EC50
Description: Anti-HCMV (Anti-Human Cytomegalovirus) and anti-MCMV (Anti-Murine Cytomegalovirus) cytopathogenicity tests:
as §1, §2

HCMV = assay: Anti-HCMV cytopathogenicity test; assay type: cell-based, human cytomegalovirus; conditions: for pEC50: Human betaherpesvirus 5, 144 h, inhibition of CPE by 50% in HCMV-infected HELF cells, M.O.I. 0.001–0.002, 6 days; for SI HCMV: selectivity index = CC50 (HELF)/EC50 (HCMV)
Description: Anti-HCMV (Anti-Human Cytomegalovirus) and anti-MCMV (Anti-Murine Cytomegalovirus) cytopathogenicity tests: The test compounds were employed as 50 millimolar (mM) solutions in dimethyl sulphoxide (DMSO). Ganciclovir, foscarnet and cidofovir served as reference compounds. Following the addition of in each case 2 μl of the 50, 5, 0.5 and 0.05 mM DMSO stock solutions to in each case 98μ of cell culture medium in row […], in duplicate determinations, 1:2 dilutions with in each case 50 μl of medium were prepared up to row 11 of the 96-well plate. The wells in rows 1 and 12 each contained 50 μl of medium. 150 μl of a suspension of 1×10^4 cells (human lung fibroblasts [HELF]) (row 1=cell control) or, in rows 2-12, a mixture of HCMV-infected and non-infected HELF cells (M.O.I.=0.001-0.002), i.e. 1-2 infected cells per 1000 non-infected cells, were then pipetted into each of the wells. Row 12 (without substance) served as virus control. The final test concentrations were 250-0.0005 μM. The plates were incubated at 37° C./5% CO2 for 6 days, i.e. until all cells in the virus controls had been infected (100% cytopathogenic effect [CPE]). The wells were then fixed and stained by adding a mixture of Formalin and Giemsa Stain (30 minutes), washed with doubly distilled water and dried in a drying cabinet at 50° C. The plates were then evaluated visually using an overhead microscope (plaque multiplier from Technomara). From the test plates, the following data were determined: EC50 (HCMV)=substance concentration in μM which inhibits the CPE (cytopathic effect) by 50% compared to the untreated virus control; SI (selectivity index)=CC50 (HELF)/EC50 (HCMV).

SMILES	pEC50 (MCMV)	pEC50 (HCMV)	CC50 at 5 days [1] [nM]	CC50 at 6 days [2] [nM]	SI MCMV (MCMV)	SI HCMV (HCMV)
CN(C)c1cccc(-c2nc(-c3ccc(S(=O)(=O)Nc4cccc(NC(=O)C5(C)CC5)c4)cc3)no2)c1 [Example 2, N-(3-{[(4-{5-[3-(Dimethylamino)phenyl]-1,2,4-oxadiazol-3-yl}phenyl)sulphonyl]-amino}phenyl)-1-methylcyclopropanecarboxamide]	7.35	7.30	900	< 16000	20	<320
Cc1cccc(-c2nc(-c3ccc(S(=O)(=O)Nc4cccc(NC(=O)C5(C)CC5)c4)cc3)no2)n1 [Example 5, 1-Methyl-N-{3-[({4-[5-(6-methyl-2-pyridinyl)-1,2,4-oxadiazol-3-yl]phenyl}-sulphonyl)amino]phenyl}cyclopropanecarboxamide]	7.85	7.80	> 31000	> 16000	>2214	>1000
Cc1cc(-c2nc(-c3ccc(S(=O)(=O)Nc4cccc(NC(=O)C5(C)CC5)c4)cc3)no2)nn1C [Example 8, N-{3-[({4-[5-(1,5-Dimethyl-1H-pyrazol-3-yl)-1,2,4-oxadiazol-3-yl]phenyl}-sulphonyl)amino]phenyl}-1-methylcyclopropanecarboxamide]	7.62	7.70	> 3900	> 2200	>163	>110
CC1(C(=O)Nc2cccc(NS(=O)(=O)c3ccc(-c4noc(-c5nccc6ccccc56)n4)cc3)c2)CC1 [Example 10, N-{3-[({4-[5-(1-Isoquinolinyl)-1,2,4-oxadiazol-3-yl]phenyl}sulphonyl)-amino]phenyl}-1-methylcyclopropanecarboxamide]	8.15	8.10	> 7800	> 3900	>975	>488
CC(C)(CF)C(=O)Nc1ccc(NS(=O)(=O)c2cccc(-c3noc(-c4ccccc4)n3)c2)cc1 [Example 13, 3-Fluoro-2,2-dimethyl-N-[4-({[3-(5-phenyl-1,2,4-oxadiazol-3-yl)phenyl]sulphonyl}-amino)phenyl]propanamide]	7.52	7.40	< 16000	< 8000	<533	<200
CC1(C(=O)Nc2ccc(NS(=O)(=O)c3cccc(-c4nnc(-c5ccccn5)s4)c3)cc2)CC1 [Example 131, 1-Methyl-N-{4-[({3-[5-(2-pyridinyl)-1,3,4-thiadiazol-2-yl]phenyl}sulphonyl)amino]phenyl}cyclopropanecarboxamide]	–	7.70	–	> 28000	–	>1555
CC(=O)Nc1cccc(-c2nc(-c3ccc(S(=O)(=O)Nc4cccc(NC(=O)C5(C)CC5)c4)cc3)no2)n1 [Example 132, N-(3-{[(4-{5-[6-(Acetylamino)-2-pyridinyl]-1,2,4-oxadiazol-3-yl}phenyl)sulphonyl]-amino}phenyl)-1-methylcyclopropanecarboxamide]	8.52	8.22	2300	47000	767	7833

The next lines start with results.

pEC50 (MCMV)	pEC50 (HCMV)	SMILES	CC50 at 5 days [1] [nM]	CC50 at 6 days [2] [nM]	SI MCMV (MCMV)	SI HCMV (HCMV)
7.82	8.00	CC1(C(=O)Nc2cccc(NS(=O)(=O)c3ccc(-c4noc(-c5csc(N)n5)n4)cc3)c2)CC1 [Example 4]	11000	> 63000	733	>6300
7.39	7.70	Cc1cc(-c2nc(-c3ccc(S(=O)(=O)Nc4cccc(NC(=O)C5(C)CC5)c4)cc3)no2)[nH]n1 [Example 6, 1-Methyl-N-{3-[({4-[5-(3-methyl-1H-pyrazol-5-yl)-1,2,4-oxadiazol-3-yl]phenyl}-sulphonyl)amino]phenyl}cyclopropanecarboxamide]	2900	39000	71	2053
7.60	7.60	CC1(C(=O)Nc2cccc(NS(=O)(=O)c3ccc(-c4noc(-c5cscn5)n4)cc3)c2)CC1 [Example 7, 1-Methyl-N-{3-[({4-[5-(1,3-thiazol-4-yl)-1,2,4-oxadiazol-3-yl]phenyl}sulphonyl)-amino]phenyl}cyclopropanecarboxamide]	12000	47000	480	1880
8.70	7.82	Cc1nc(-c2nc(-c3ccc(S(=O)(=O)Nc4cccc(NC(=O)C5(C)CC5)c4)cc3)no2)cs1 [Example 11, 1-Methyl-N-{3-[({4-[5-(2-methyl-1,3-thiazol-4-yl)-1,2,4-oxadiazol-3-yl]phenyl}-sulphonyl)amino]phenyl}cyclopropanecarboxamide]	> 12000	> 16000	>5850	>1040
7.24	7.24	CC1(C(=O)Nc2cccc(NS(=O)(=O)c3ccc(-c4noc(-c5csc(CN)n5)n4)cc3)c2)CC1 [Example 12, N-(3-{[(4-{5-[2-(Aminomethyl)-1,3-thiazol-4-yl]-1,2,4-oxadiazol-3-yl}phenyl)-sulphonyl]amino}phenyl)-1-methylcyclopropanecarboxamide]	7000	14000	121	241
8.33	8.05	CC1(C(=O)Nc2cccc(NS(=O)(=O)c3ccc(-c4noc(-c5cccc(N)n5)n4)cc3)c2)CC1 [Example 134, N-{3-[({4-[5-(6-Amino-2-pyridinyl)-1,2,4-oxadiazol-3-yl]phenyl}sulphonyl)amino]-phenyl}-1-methylcyclopropanecarboxamide]	8000	94000	1617	10444
